Assay results taken from the supplement of paper PMC7600603.

Legend:
DLD1 NRF2-WT [1] = conditions: 72 h; CellTiter-Glo viability
How it was run: (§1)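 EC50 and drug sensitivity score, the latter a normalised area under the curve, were calculated from logistic dose-response fits. The fits had four parameters and used CellTiter-Glo viability data read on a Pherastar FS reader 72 h after treatment, normalised to vehicle wells and 100-μM positive-control wells. Treated cells were isogenic DLD1 colorectal cancer cells, NRF2 wild-type or CRISPR gain-of-function, exposed in 384-well plates to library compounds at 5 concentrations spanning a 10,000-fold range.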

DLD1 NRF2-GOF [2] = experiment: TC50 cytotoxicity; higher = less toxic; conditions: 72 h; CellTox Green cytotoxicity
How it was run: (§2)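 After growth in DMEM with 10% FBS, NRF2 wild-type and CRISPR-edited isogenic DLD1 cells were seeded in 384-well plates and given library compounds at 5 concentrations across a 10,000-fold range. Fluorescence from CellTox Green was taken on a Pherastar FS reader after 72 h and normalised against vehicle wells and 100-μM positive-control wells. From logistic dose-response fits of cytotoxicity came the TC50 and the drug sensitivity score, a normalised area under the curve.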

DLD1 NRF2-WT [3] = experiment: TC50 cytotoxicity; higher = less toxic; conditions: 72 h; CellTox Green cytotoxicity
How it was run: as §2

DLD1 NRF2-GOF [4] = experiment: drug sensitivity score (DSS) cytotoxicity (DSS score); higher = more toxic; extreme values may be limits of the assay; conditions: 72 h; CellTox Green cytotoxicity
How it was run: as §2

DLD1 NRF2-WT [5] = experiment: as above; conditions: 72 h; CellTox Green cytotoxicity
How it was run: as §2

DLD1 NRF2-GOF [6] = experiment: drug sensitivity score (DSS) viability (DSS score); higher = more sensitive; extreme values may be limits of the assay; conditions: 72 h; CellTiter-Glo viability
How it was run: as §1

DLD1 NRF2-WT [7] = experiment: as above; conditions: 72 h; CellTiter-Glo viability
How it was run: as §1

DLD1 NRF2-GOF [8] = conditions: 72 h; CellTiter-Glo viability
How it was run: as §1

EC50 viability (DLD1 NRF2-WT [1]) [nM]	EC50 viability (DLD1 NRF2-GOF [8]) [nM]	Structure (SMILES)	TC50 cytotoxicity (DLD1 NRF2-GOF [2]) [nM]	TC50 cytotoxicity (DLD1 NRF2-WT [3]) [nM]	drug sensitivity score (DLD1 NRF2-GOF [4])	drug sensitivity score (DLD1 NRF2-WT [5])	drug sensitivity score (DLD1 NRF2-GOF [6])	drug sensitivity score (DLD1 NRF2-WT [7])
59.8	–	C[C@@H](Nc1cc(F)cc(F)c1)c1cc(C(=O)N(C)C)cc2c(=O)cc(N3CCOCC3)oc12 [AZD-8186]	> 1000	> 1000	0	0	5.2	3.6
–	5.1	CCC1=C[C@@H]2CN(C1)Cc1c([nH]c3ccccc13)[C@@](C(=O)OC)(c1cc3c(cc1OC)N(C)[C@H]1[C@@](O)(C(=O)OC)[C@H](OC(C)=O)[C@]4(CC)C=CCN5CC[C@]31[C@@H]54)C2 [Vinorelbine]	> 10000	–	7.5	8.1	32.2	–
–	8090	Cn1nnc2c(C(N)=O)ncn2c1=O [Temozolomide]	> 100000	> 100000	0	0	4.1	–
–	> 1000	Cc1c(-c2c(-c3ccc(F)o3)sc3ncnc(O[C@H](Cc4ccccc4OCc4ccnn4CC(F)(F)F)C(=O)O)c23)ccc(OCCN2CCN(C)CC2)c1Cl	> 1000	> 1000	0	0	0	3.6
–	> 1000	Cn1ncc(Cl)c1-c1cc(C(=O)N[C@H](CN)Cc2cccc(F)c2)sc1Cl [Afuresertib]	> 1000	> 1000	0	0	0.6	1
–	> 10000	N[C@@H]1CCCN(c2c(/C=C3\SC(=O)NC3=O)cccc2-c2ccccc2)C1 [AZD1208]	> 10000	> 10000	0	0	7.2	–
–	> 10000	CC(C)C[C@H](NC(=O)[C@@H](COC(C)(C)C)NC(=O)[C@H](Cc1ccc(O)cc1)NC(=O)[C@H](CO)NC(=O)[C@H](Cc1c[nH]c2ccccc12)NC(=O)[C@H](Cc1cnc[nH]1)NC(=O)[C@@H]1CCC(=O)N1)C(=O)N[C@@H](CCCNC(=N)N)C(=O)N1CCC[C@H]1C(=O)NNC(N)=O [Goserelin]	> 10000	> 10000	0	0	0	4.5
33.4	–	FC(F)(F)c1ccc(/C=C/c2nc(COc3ccc(CCCCn4ccnn4)cc3)co2)cc1 [Mubritinib]	> 1000	> 1000	0	0	2.4	7.4
–	1400	O=C(c1cc(Cc2n[nH]c(=O)c3ccccc23)ccc1F)N1CCN(C(=O)C2CC2)CC1 [Olaparib]	> 10000	> 10000	0	0	2.6	–
–	> 10000	Oc1ncnc2[nH]ncc12 [Allopurinol]	> 10000	> 10000	0	0	0	–
–	28.3	CS(=O)(=O)CCNCc1ccc(-c2ccc3ncnc(Nc4ccc(OCc5cccc(F)c5)c(Cl)c4)c3c2)o1 [Lapatinib]	> 1000	> 1000	0	0	4.4	2.8
1540	–	C#Cc1cccc(Nc2ncnc3cc4c(cc23)OCCOCCOCCO4)c1 [Icotinib]	> 10000	> 10000	0	0	0.7	2.5
> 10000	–	O=C1Cc2cc(C(=O)NC3C[C@H]4CC[C@@H](C3)N4S(=O)(=O)CC3CCN(CCCC(F)(F)F)CC3)c(Cl)cc2N1 (stereo not given in full)	> 10000	> 10000	0	0	4.1	0
–	> 10000	O=C1CCC(N2C(=O)c3ccccc3C2=O)C(=O)N1 (stereo not given) [Thalidomide]	> 10000	> 10000	0	0	0.7	–
–	> 1000	O=C(Nc1cnn2ccc(N3CCC[C@@H]3c3cc(F)ccc3F)nc12)N1CC[C@H](O)C1 [Larotrectinib]	> 1000	> 1000	0	0	0.5	–
> 10000	–	CC1(C)NC(=O)N(c2ccc([N+](=O)[O-])c(C(F)(F)F)c2)C1=O [Nilutamide]	> 10000	> 10000	0	0	3.6	0
–	3550	O=C(CCCCCCC(=O)Nc1ccccc1)NO [Vorinostat]	> 10000	2240	0	2.2	3.5	–
–	6	C/C=C1\NC(=O)[C@H]2CSSCC/C=C/[C@H](CC(=O)N[C@H](C(C)C)C(=O)N2)OC(=O)[C@H](C(C)C)NC1=O [Romidepsin]	122	105	2.9	9.6	23.4	–
–	362	Cc1noc2c1-c1ccccc1C(c1ccc(Cl)cc1)=N[C@H]2CC(N)=O [CPI-0610]	> 10000	> 10000	0	0	3.6	–
251	–	CCc1nc(C(N)=O)c(Nc2ccc(N3CCC(N4CCN(C)CC4)CC3)c(OC)c2)nc1NC1CCOCC1 [Gilteritinib]	> 1000	> 1000	0	0	1.4	2.9
–	> 10000	Nc1ncnc2c1c(COc1cccc(Cl)c1)nn2C1CCOCC1	> 10000	> 10000	0	0	0.6	–
